Experiments:
[1] = Pharmacokinetics of ezogabine prodrugs in rat (IV, IM, PO); conditions: for Exposure of the prodrug itself in systemic circulation: rat, in vivo, po
Experimental: (§1) Blood was diluted by 10% with these stabilizers.
(§2) Extraction of the molecules was conducted by taking a 50 uL aliquot of plasma and adding 200 uL of acetonitrile containing 200 ng/mL tolbutamide as the internal standard. Samples were precipitated in a 96 well plate, centrifuges and an aliquot transferred to a new plate, dried down under heat and nitrogen and then reconstituted in the initial mobile phase conditions of the LC-MS/MS method. […] A standard curve was prepared from 5000 ng/mL to 1 ng/mL for each analyte. Concentration data from the bioanalytical run was analyzed by Phoenix Winnonlin version 8 for noncompartmental PK analysis, plotting of concentration time curves and tabulation of PK parameters.
150 uL of blood were collected at predesignated time points. At completion of the study animals were asphyxiated by carbon dioxide gas and exsanguinated for euthanasia.

[2] = Acid and organic solution stability, HPLC-UV 250 nm; conditions: for Appearance of the stability solution / Degradation / conversion to ezogabine in solution (summary) / Ezogabine Area: 5 mg/mL; for Degradation / conversion to ezogabine in solution (summary): up to 3 weeks
Experimental: An HPLC-UV Vis method was developed using 0.1% Formic acid in water as mobile phase A and 0.1% Formic acid in acetonitrile as mobile Phase B. A gradient method was developed ramping from 10% A to 90% B over 8 minutes and then returning to 10% A at 8.5 minutes on a 4.6×50 mm Zorbax C-18 column. Injections of 10 uL of stability solutions were injected for analyte detection.
[…] Aliquots were collected at serial time points and then diluted to a nominal concentration of 100 ug/mL for injection to the HPLC and 250 nm monitored by the diode array detector. Data at approximately 10 days is presented.
Aliquots were collected at serial time points and then diluted to a nominal concentration of 100 ug/mL for injection to the HPLC and 250 nm monitored by the diode array detector.
(§3) It was also evaluated at 2 N HCl at 37° C. Aliquots were collected at serial time points and then diluted to a nominal concentration of 100 ug/mL for injection to the HPLC and 250 nm monitored by the diode array detector.
as §3, §3, §3

[3] = Pharmacokinetics of ezogabine prodrugs in mouse (SC, PO); conditions: male mice, PO 20 mg/kg Cmpd 1 dosed
Experimental: as §1
as §2, with “noncompartmental sparse sampling” for “noncompartmental”
Animals were asphyxiated by carbon dioxide gas, blood was collected by cardiac stick and they were euthanized by cervical dislocation.

[4] = patients receiving ezogabine (POTIGA); cited from earlier work
[5] = tested on: mechanical hypersensitivity in the CCI model; test: CCI model of neuropathic pain (pin prick, von Frey hairs); type: in vivo, Sprague Dawley rat; conditions: 1 h after pretreatment
Experimental: Compound 3 was tested for reversal of mechanical hypersensitivity to the pin prick test for hindlimb paw withdraw and the von Frey hairs for gram force mechanical allodynia in the CCI model of neuropathic pain. Male Sprague Dawley rats (n=8/group) were tested for baseline sensitivity on Day 1 (ipsilateral and contralateral paws) and administered XYG-203 orally; 40 mg/kg on Day 1, 20 mg/kg Day 3, 10 mg/kg Day 5, 5 mg/kg Day 7, 1 mg/kg Day 10 and baseline on Day 12. Mechanical hypersensitivity was tested 1 h after pretreatment. Data (mean±SD) were analyzed with a repeated measures ANOVA with Dunnet's adjustment for multiple comparisons.

[6] = In vitro mouse plasma stability at 37° C.; type: in vitro ADME; conditions: 1000 ng/mL
Experimental: (§4) Plasma was collected by the biomaterial vendor and kept frozen at −20° C.
(§5) The samples were analyzed by HPLC separation and mass spectrometry detection for prodrug amount, relative to a baseline time 0 control sample. Triplicate samples were generated at each time point and the peak area response was averaged and converted to a percent of baseline control.

[7] = Stability in solvents on the benchtop exposed to light, HPLC-UV 230 nm; type: physicochemical
Experimental: Compounds in solvent were left on the benchtop exposed to light for up to 7 days since it is known that Compound 1 will degrade with light within 3-7 days.
Stability was assessed by taking an aliquot from the solubility vials at each test day. A single replicate was injected for each test condition.
Samples were injected onto an HPLC system with an aqueous mobile phase and acetonitrile organic phase and compounds were separated on a C8 50×2 mm column. Wavelength 230 nm was monitored for absorption and integrated for peak area while the mass spectrometer was used to confirm mass. Samples were tested on Day 1 and on subsequent days through Day 7.

[8] = Solvent solubility assessment by visual inspection; type: physicochemical; conditions: 0.1N Na2HPO4
Experimental: Compounds were weighed and placed into a 4 dram vials and solvents were added to the target concentration. Compounds were vortex and visually inspected for particulates and considered soluble if clear upon visual inspection with and without magnification. Solubility was reported as either greater than (>) or less than (<) from the prepared concentration. […] It was evaluated at 10 mg/mL in 0.1 N NaCl and was freely soluble. It was evaluate at 1 mg/mL in 0.1 N NaOH and 0.1 N Na2HPO4 and was freely soluble. In ethanol and methanol it was freely soluble at a concentration of 75 mg/mL. […] It was freely soluble at 75 mg/mL in methanol and ethanol. It was soluble at 1 mg/mL in 1N HCl.

[9] = Rat PK at equimolar dose to Ezogabine (20 mg/kg) in 0.5% methylcellulose; conditions: for AUClast/D / Cmax/D: male jugular vein cannulated rats, dose equimolar to Ezogabine 20 mg/kg, 0.5% methylcellulose in water, analyte the dosed prodrug; for AUClast/D: 24 hours; for Exposure of ezogabine (dose normalized AUC) compared with ezogabine itself: rats, equimolar dose to Ezogabine 20 mg/kg
Experimental: (§6) Blood samples were collected at the same time points over 24 hours to generate a concentration time profile. Two male rats were dosed per group. Plasma samples were analyzed by LC/MS/MS and the resulting concentration time profiles and PK parameters are provided.
as §6, §6

[10] = In vitro rat plasma stability at 37° C.; type: in vitro ADME
Experimental: as §4, §5

[11] = tested on: MES induced seizures; test: SD rat MES test after IM Compound 4; type: in vivo; conditions: IM 75 mg/kg
Experimental: All treatments were at 0.083, 0.25, 0.5, 1, 2, 4, and 8 hours prior to the administration of MES test, where 6 seconds where 6 seconds without a seizure was considered protected.

[12] = tested on: flicks/licks after intraplantar 5% formalin; test: Formalin inflammatory pain model; type: in vivo, CD-1 mouse; conditions: SC 100 mg/kg in water 30 minutes before formalin; both phases (0-10 min, 15-40 min)
Experimental: Compound 4 was assessed in the rat formalin inflammatory model. The number of flicks/licks of a male CD-1 mouse in the acute phase 0-10 minute and the inflammatory phase from 15-40 min after intraplantar administration of 50 μL of 5% formalin was recorded. […] Data is presented over the duration of the observation periods in 2 minute bins.

[13] = Methanol, room temp., normal light, 437 h

In the case of CCOC(=O)Nc1ccc(NCc2ccc(F)cc2)cc1N [Compound 1, ezogabine], the AUClast/D ([1]; male Sprague Dawley rats, PO 20 mg/kg Cmpd 1 dosed, analyte Cmpd 1, AUClast […] h) is reported as 280 ng·h/mL/mg/kg, the “Appearance of the stability solution” value ([2]; acid solutions, room temperature) is reported as “turning light purple (indicating degradation) by Day 2” and the Solubility ([2]; low pH) is reported as “soluble”. The “Behaviour at low pH” value ([2]; low pH (1 N HCl) and simulated gastric fluid) was “degrades and forms a chromophore dimer”, the Solubility ([2]; neutral pH) was “not soluble” and the “Appearance of the stability solution” value ([2]; organic solvent solutions, room temperature) was “did not begin turning purple until Day 7”. For the same compound, the Cmax/D ([3]; analyte Cmpd 1) was 148 ng/mL/mg/kg, the AUClast/D ([3]; analyte Cmpd 1, AUClast 6 h) was 190 ng·h/mL/mg/kg and the “Adverse reaction: abnormal coordination” value [4] was 7%. For the same compound, the “Adverse reaction: aphasia” value [4] was 4%, the “Adverse reaction: asthenia” value [4] was 5% and the “Adverse reaction: balance disorder” value [4] was 4%. For the same compound, the “Adverse reaction: blurred vision” value [4] was 5%, the “Adverse reaction: confusional state” value [4] was 9% and the “Adverse reaction: diplopia” value [4] was 7%. For the same compound, the “Adverse reaction: disturbance in attention” value [4] was 6%, the “Adverse reaction: dizziness” value [4] was 23% and the “Adverse reaction: dysarthria” value [4] was 4%. The “Adverse reaction: fatigue” value [4] was 15%, the “Adverse reaction: gait disturbance” value [4] was 4% and the “Adverse reaction: memory impairment” value [4] was 6%. For the same compound, the “Adverse reaction: somnolence” value [4] was 22%, the “Adverse reaction: tremor” value [4] was 8% and the “Adverse reaction: vertigo” value [4] was 8%.

For CCOC(=O)Nc1ccc(NCc2ccc(F)cc2)cc1NC(=O)OC(C)OC(=O)C(C)C (stereo not shown) [Compound 3], the “Mechanical hypersensitivity versus baseline” value ([5]; oral 5 mg/kg) was 95% confidence intervals did not cross the baseline mean, the “Gram force to paw lift (von Frey hairs)” value ([5]; oral 40 mg/kg) was “increased the gram force to paw lift significantly” and the “Reduction of the latency of neuropathic ipsilateral paw withdrawal” value ([5]; oral 40 mg/kg, pin prick, p=0.0003) was 9.2 s. For the same compound, the “Time to full degradation in vitro” value [6] was at most 1 h, the “Exposure of the prodrug itself in systemic circulation” value [1] was “very little exposure” and the Stability in solvent ([7]; 0.1N HCl, benchtop exposed to light) was “stable over 4 days”. For the same compound, the Stability in solvent ([7]; 1N HCl over 7 days, benchtop exposed to light) was “not stable”, the Stability in solvent ([7]; ethanol and methanol, benchtop exposed to light, degradation on Day 4) was “soluble and stable through 3 days” and the Solubility [8] was under 1000 µg/mL. The AUClast/D [9] was 0.0136 ng·h/mL/mg/kg, the Cmax/D [9] was 0.0273 ng/mL/mg/kg and the “Total exposure of ezogabine on a given molar dose relative to ezogabine” value ([9]; male, rat, in vivo) was over 2 fold. For the same compound, the “Appearance of the stability solution” value [2] was “clear and colorless through Day 18”, the “Degradation / conversion to ezogabine in solution (summary)” value (shortened to “Degradation / conversion to ezogabine”) [2] was “converts to ezogabine under acidic conditions but does not in organic solvent” and the “Ezogabine Area” value ([2]; 0.1N HCl, room temp., normal light, 433 h) was 400 mAU. For the same compound, the “Ezogabine Area” value ([2]; 1N HCl, room temp., normal light, 97 h) was 2881 mAU, the “Appearance of the stability solution” value ([2]; 9 days) was “turned a golden yellow by Day 9” and the “Ezogabine Area” value ([2]; Acetonitrile, room temp., normal light, 435 h) was 51 mAU. For the same compound, the “Ezogabine Area” value ([2]; Ethanol, room temp., normal light, 390 h) was 43 mAU, the “Ezogabine Area” value ([2]; Methanol, room temp., normal light, 435 h) was 41 mAU and the “Time to full degradation in vitro” value ([10]; 1000 ng/mL) was at most 1 h.

In the case of CCOC(=O)Nc1ccc(NCc2ccc(F)cc2)cc1NC(=O)[C@@H](N)CCCCN [Compound 4], the Plasma stability [6] is reported as “degrades by 6 hours”, the “Exposure of the prodrug itself in systemic circulation” value [1] is reported as “slightly more detectable” and the “Protection from MES induced seizures” value ([11]; at 1 h post dose) is reported as “almost fully protected”. The “Protection from MES induced seizures” value ([11]; from 2 through 8 hours post dose) was “fully protected”, the Stability in solvent ([7]; all test conditions except 0.1N NaOH, over 4 days) was “stable” and the Solubility [8] was over 1000 µg/mL. For the same compound, the “Reduction in behavioral response (flicks/licks) compared to vehicle” value [12] was 50%, the AUClast/D [9] was 6.26 ng·h/mL/mg/kg and the Cmax/D [9] was 2.34 ng/mL/mg/kg. The “Exposure of ezogabine (dose normalized AUC) compared with ezogabine itself” value [9] was “similar”, the “Degradation / conversion to ezogabine” value [2] was “very little degradation to ezogabine” and the “Ezogabine Area” value ([2]; 0.1N HCl, room temp., normal light, 269 h) was 0 mAU. For the same compound, the “Ezogabine Area” value ([2]; 1N HCl, room temp., normal light, 269 h) was 0 mAU, the “Ezogabine Area” value ([2]; 2N HCl 37 C., 436 h) was 167 mAU and the “Ezogabine Area” value ([2]; 2N HCl, room temp., normal light, 269 h) was 38 mAU. For the same compound, the “Appearance of the stability solution” value ([2]; 18 days) was “remained clear and colorless through Day 18”, the “Ezogabine Area” value [2, 13] was 0 mAU and the “Ezogabine Area” value ([2]; PBS, room temp., normal light, 435 h) was 0 mAU. The Percent remaining ([10]; at 23 h) was “below 50%”.

With CCOC(=O)Nc1ccc(NCc2ccc(F)cc2)cc1NC(=O)[C@H](N)CO [Compound 6] the AUClast/D [9] was 199 ng·h/mL/mg/kg, the Cmax/D [9] was 233 ng/mL/mg/kg and the “Exposure of ezogabine (dose normalized AUC) compared with ezogabine itself” value [9] was “similar”. For the same compound, the “Degradation / conversion to ezogabine” value [2] was “very little degradation to ezogabine”, the “Ezogabine Area” value ([2]; 1N HCl, room temp., normal light, 437 h) was 58 mAU and the “Ezogabine Area” value ([2]; 2N HCl 37 C., 437 h) was 461 mAU. The “Ezogabine Area” value ([2]; 2N HCl, room temp., normal light, 437 h) was 177 mAU, the “Appearance of the stability solution” value ([2]; 18 days) was “remained clear and colorless through Day 18” and the “Ezogabine Area” value [2, 13] was 184 mAU.

Source: patent US20240228434A1, “PRODRUGS OF KV7 CHANNEL OPENERS” (Xyzagen, Inc., priority 2021, published 2024)
